Measurements from patent US11964941B2, “5-Bromo-indirubins” (City of Hope, priority 2014, dated 2024).

Experiments:
Assay type in all cases: cell-based, human
MV4-11 AML cells = experiment: MTS cell viability, MV4-11 AML cells (FLT3-ITD); conditions: Homo sapiens, 48 h, read-out: IC50 for 50% inhibition of viability
Description: (§1) MTS assays were performed for cell viability. Human cancer cells were seeded in 96-well plates (2500 cells/well for solid tumors, 5000 cells/well for blood tumors), incubated overnight at 37 C in 5% CO2, and exposed to 5IN-1NH1 or 5IN-1NH1s in a dose-dependent manner for 48 h. See FIGS. 1A-1B, 2A-2B, 3, 4A-4B, and 6A-6B. Dimethyl sulfoxide (DMSO) was used as the vehicle control. Viable cell numbers were determined by tetrazolium conversion to its formazan dye and absorbance was measured at 490 nm using an automated ELISA plate reader. Each experiment was performed in quadruplicate. IC50 values were determined using CalcuSyn software (BIOSOFT®, Cambridge GB).
(§2) Compound (1289) inhibits viabilities of MV4-11 and MOLM13 AML cells that harbor an internal tandem duplication (ITD) mutation. MTS assays were performed for cell viability. Human MV4-11 and MOLM13 AML cells (5000/well) were seeded in 96-well plates, incubated overnight at 37° C. in 5% CO2, and exposed to compound (1289) in a dose-dependent manner for 48 h. Dimethyl sulfoxide (DMSO) was used as the vehicle control. Viable cell numbers were determined by tetrazolium conversion to its formazan dye and absorbance was measured at 490 nm using an automated ELISA plate reader. Each experiment was performed in quadruplicate. IC50 values were determined using CalcuSyn software.

[1] = test system: MDA-MB-231 breast cancer cells; experiment: MTS cell viability, MDA-MB-231 breast cancer cells; conditions: Homo sapiens, 48 h, read-out: IC50 for 50% inhibition of viability
Description: as §1

[2] = test system: SKOV3 ovarian cancer cells; experiment: MTS cell viability, SKOV3 ovarian cancer cells; conditions: Homo sapiens, SK-OV-3, 48 h, read-out: IC50 for 50% inhibition of viability
Description: as §1

MOLM13 AML cells = experiment: MTS cell viability, MOLM13 AML cells (FLT3-ITD); conditions: Homo sapiens, MOLM-13, 48 h, read-out: IC50 for 50% inhibition of viability
Description: as §1, §2

A549 lung cancer cells = experiment: MTS cell viability, A549 lung cancer cells; conditions: Homo sapiens, 48 h, read-out: IC50 for 50% inhibition of viability
Description: as §1

KCL22 CML cells = experiment: MTS cell viability, KCL22 CML cells; conditions: Homo sapiens, KCL-22, 48 h, read-out: IC50 for 50% inhibition of viability
Description: as §1

[3] = test system: DU145 prostate cancer cells; experiment: MTS cell viability, DU145 prostate cancer cells; conditions: Homo sapiens, DU-145, 48 h, read-out: IC50 for 50% inhibition of viability
Description: as §1

[4] = test system: T315I ABL1 mutant KCL22 CML cells; experiment: MTS cell viability, T315I ABL1 mutant KCL22 CML cells
Description: as §1
Human DU145 prostate cancer, A2058 melanoma, SKOV3 ovarian cancer and T315I ABL1 mutant KCL22 CML cells were seeded in 96-well plates (2500 cells/well for solid tumors, 5000 cells/well for blood tumors), incubated overnight at 37° C. in 5% CO2, and exposed to 5IN-6NC1, 5IN-1NH1, 5IN-6NNC6, or 5IN-6NNC7 in a dose-dependent manner for 48 h. Dimethyl sulfoxide (DMSO) was used as the vehicle control. Viable cell numbers were determined by tetrazolium conversion to its formazan dye and absorbance was measured at 490 nm using an automated ELISA plate reader. Each experiment was performed in quadruplicate. IC50 values were determined using CalcuSyn software.

A2058 melanoma cells = experiment: MTS cell viability, A2058 melanoma cells; conditions: Homo sapiens, 48 h, read-out: IC50 for 50% inhibition of viability
Description: as §1

IC50 (MV4-11 AML cells): 7.8 nM | IC50 [1]: 49.5 nM | IC50 [2]: 174 nM | IC50 (MOLM13 AML cells): 11.3 nM | IC50 (A549 lung cancer cells): 66.5 nM | IC50 [3]: 35.7 nM | IC50 (A2058 melanoma cells): 77.2 nM
SMILES: CNCCO/N=C1/C(=C2/C(=O)Nc3ccc(Br)cc32)Nc2ccccc21 [5IN-1NH1]
IC50 (KCL22 CML cells): 57.4 nM | IC50 ([4]; Homo sapiens, KCL-22, T315I ABL1 mutant KCL22 CML cells, MTS, 48 h, read-out: IC50 for 50% inhibition of viability): 52.3 nM | potency against T315I KCL22 CML cells relative to compound (1289) ([4]; more potent than compound (1289)): around 10 fold
